Source: patent US9113629B2, “4-amino-6-(4-substituted-phenyl)-picolinates and 6-amino-2-(4-substituted-phenyl)-pyrimidine-4-carboxylates and their use as herbicides” (DOW AGROSCIENCES LLC, priority 2013, dated 2015)
Like-named read-outs stand apart in the source and are kept apart here.

Key:
[1] = tested on: Key Broadleaf Weed and Crop Species; experiment: Post-emergent Test II herbicidal activity (Table 5); format: in vivo; details: post-emergence, 336 h, 14 days after application; for pest or weed control at 70 g/ha: application rate 70 g ai/ha; for pest or weed control at 140 g/ha: application rate 140 g ai/ha
How it was run: (§1)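 Greenhouse post-emergent assay: seedlings (first/second true leaf) in Metro-Mix 360 were sprayed at 187 L/ha at a top rate plus twofold dilutions down to 1/16×; solvent-blank controls were included. Percent visual injury was read at 14 d.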

[2] = tested on: Key Grass and Sedge Weeds as well as Grass Crops; experiment: Post-emergent Test II herbicidal activity (Table 6); format: in vivo; details: post-emergence, 336 h; for pest or weed control at 70 g/ha: 70 g ai/ha; for pest or weed control at 140 g/ha: 140 g ai/ha
How it was run: as §1

[3] = ABUTH: velvetleaf (Abutilon theophrasti), read-out: Visual Growth Reduction (%) 14 Days After Application, ABUTH
[4] = AMARE: redroot pigweed (Amaranthus retroflexus), read-out: Visual Growth Reduction (%) 14 Days After Application, AMARE
[5] = BRSNN: oilseed-rape, canola (Brassica napus), read-out: Visual Growth Reduction (%) 14 Days After Application, BRSNN
[6] = CHEAL: lambsquarters (Chenopodium album), read-out: Visual Growth Reduction (%) 14 Days After Application, CHEAL
[7] = EPHHL: wild poinsettia (Euphorbia heterophylla), read-out: Visual Growth Reduction (%) 14 Days After Application, EPHHL
[8] = HELAN: sunflower (Helianthus annuus), read-out: Visual Growth Reduction (%) 14 Days After Application, HELAN
[9] = VIOTR: wild pansy (Viola tricolor), read-out: Visual Growth Reduction (%) 14 Days After Application, VIOTR
[10] = CYPES: yellow nutsedge (Cyperus esculentus), read-out: Visual Growth Reduction (%) 14 Days After Application, CYPES
[11] = DIGSA: crabgrass (Digitaria sanguinalis), read-out: Visual Growth Reduction (%) 14 Days After Application, DIGSA
[12] = ECHCG: barnyardgrass (Echinochloa crus-galli), read-out: Visual Growth Reduction (%) 14 Days After Application, ECHCG
[13] = ORYSA: rice (Oryza sativa), crop, read-out: Visual Growth Reduction (%) 14 Days After Application, ORYSA
[14] = SETFA: giant foxtail (Setaria faberi), read-out: Visual Growth Reduction (%) 14 Days After Application, SETFA
[15] = SORVU: grain sorghum (Sorghum vulgare), read-out: Visual Growth Reduction (%) 14 Days After Application, SORVU
[16] = TRZSS (wheat, Triticum aestivum), crop, read-out: Visual Growth Reduction (%) 14 Days After Application, TRZSS
[17] = ZEAMX: maize, corn (Zea mays), crop, read-out: Visual Growth Reduction (%) 14 Days After Application, ZEAMX

| SMILES | pest or weed control at 70 g/ha [1, 3] [%] | pest or weed control at 140 g/ha [1, 3] [%] | pest or weed control at 70 g/ha [1, 4] [%] | pest or weed control at 70 g/ha [1, 5] [%] | pest or weed control at 140 g/ha [1, 5] [%] | pest or weed control at 70 g/ha [1, 6] [%] | pest or weed control at 140 g/ha [1, 6] [%] | pest or weed control at 70 g/ha [1, 8] [%] | pest or weed control at 140 g/ha [1, 8] [%] | pest or weed control at 70 g/ha [1, 9] [%] | pest or weed control at 140 g/ha [1, 9] [%] | pest or weed control at 70 g/ha [2, 10] [%] | pest or weed control at 140 g/ha [2, 10] [%] | pest or weed control at 70 g/ha [2, 11] [%] | pest or weed control at 140 g/ha [2, 11] [%] | pest or weed control at 70 g/ha [2, 12] [%] | pest or weed control at 140 g/ha [2, 12] [%] | pest or weed control at 70 g/ha [2, 13] [%] | pest or weed control at 140 g/ha [2, 13] [%] | pest or weed control at 70 g/ha [2, 14] [%] | also measured |
| --- | --- | --- | --- | --- | --- | --- | --- | --- | --- | --- | --- | --- | --- | --- | --- | --- | --- | --- | --- | --- | --- |
| C#Cc1ccc(-c2nc(C(=O)OC)c(Cl)c(N)c2F)cc1 [Compound 7, methyl 4-amino-3-chloro-6-(4-ethynylphenyl)-5-fluoropicolinate] | 95 to 100 | 95 to 100 | 95 to 100 | 85 to 94 | 85 to 94 | 95 to 100 | 95 to 100 | 85 to 94 | 95 to 100 | 0 to 29 | 0 to 29 | 75 to 84 | 85 to 94 | 75 to 84 | 85 to 94 | 75 to 84 | 95 to 100 | 0 to 29 | 0 to 29 | 60 to 74 | pest or weed control at 140 g/ha [1, 4]: 95 to 100%; pest or weed control at 70 g/ha [1, 7]: 85 to 94%; pest or weed control at 140 g/ha [1, 7]: 95 to 100%; pest or weed control at 140 g/ha [2, 14]: 95 to 100%; pest or weed control at 70 g/ha [2, 15]: 85 to 94%; pest or weed control at 140 g/ha [2, 15]: 85 to 94%; pest or weed control at 70 g/ha [2, 16]: 30 to 44%; pest or weed control at 140 g/ha [2, 16]: 45 to 59%; pest or weed control at 70 g/ha [2, 17]: 95 to 100%; pest or weed control at 140 g/ha [2, 17]: 95 to 100%; melting point: 127 to 130 °C |
| COC(=O)c1nc(-c2ccc(Br)c(F)c2)c(F)c(N)c1Cl [Compound 49] | 95 to 100 | 95 to 100 | 95 to 100 | 95 to 100 | 95 to 100 | 95 to 100 | 95 to 100 | 95 to 100 | 95 to 100 | 95 to 100 | 95 to 100 | 95 to 100 | 85 to 94 | 60 to 74 | 75 to 84 | 85 to 94 | 95 to 100 | 0 to 29 | 0 to 29 | 60 to 74 | pest or weed control at 140 g/ha [1, 4]: 95 to 100%; pest or weed control at 140 g/ha [2, 14]: 95 to 100%; pest or weed control at 70 g/ha [2, 15]: 95 to 100%; pest or weed control at 140 g/ha [2, 15]: 95 to 100%; pest or weed control at 70 g/ha [2, 16]: 45 to 59%; pest or weed control at 140 g/ha [2, 16]: 60 to 74%; pest or weed control at 70 g/ha [2, 17]: 95 to 100%; pest or weed control at 140 g/ha [2, 17]: 95 to 100% |
| C#Cc1ccc(-c2nc(C(=O)O)c(Cl)c(N)c2F)cc1 [Compound 62] | 75 to 84 | 75 to 84 | 95 to 100 | 95 to 100 | 95 to 100 | 85 to 94 | 85 to 94 | 85 to 94 | 95 to 100 | 0 to 29 | 0 to 29 | 95 to 100 | 95 to 100 | 85 to 94 | 85 to 94 | 95 to 100 | 95 to 100 | 0 to 29 | 0 to 29 | 95 to 100 | pest or weed control at 70 g/ha [1, 7]: 95 to 100%; pest or weed control at 140 g/ha [1, 7]: 95 to 100%; pest or weed control at 140 g/ha [2, 14]: 95 to 100%; pest or weed control at 70 g/ha [2, 15]: 75 to 84%; pest or weed control at 140 g/ha [2, 15]: 75 to 84%; pest or weed control at 70 g/ha [2, 16]: 45 to 59%; pest or weed control at 140 g/ha [2, 16]: 45 to 59%; pest or weed control at 70 g/ha [2, 17]: 75 to 84%; pest or weed control at 140 g/ha [2, 17]: 85 to 94%; melting point: 142 to 147 °C (dec.) |
| COC(=O)c1nc(-c2ccc(C(F)(F)F)c(F)c2F)nc(N)c1OC [Compound 64] | 95 to 100 | 95 to 100 | 45 to 59 | 75 to 84 | 85 to 94 | 95 to 100 | 95 to 100 | 95 to 100 | 95 to 100 | 60 to 74 | 60 to 74 | 45 to 59 | 60 to 74 | 60 to 74 | 85 to 94 | 45 to 59 | 85 to 94 | 0 to 29 | 0 to 29 | 30 to 44 | pest or weed control at 140 g/ha [1, 4]: 75 to 84%; pest or weed control at 70 g/ha [1, 7]: 95 to 100%; pest or weed control at 140 g/ha [1, 7]: 95 to 100%; pest or weed control at 140 g/ha [2, 14]: 60 to 74%; pest or weed control at 70 g/ha [2, 15]: 30 to 44%; pest or weed control at 140 g/ha [2, 15]: 45 to 59%; pest or weed control at 70 g/ha [2, 16]: 30 to 44%; pest or weed control at 140 g/ha [2, 16]: 45 to 59%; pest or weed control at 70 g/ha [2, 17]: 95 to 100%; pest or weed control at 140 g/ha [2, 17]: 95 to 100%; melting point: 140 to 141 °C |
| Nc1c(F)c(-c2ccccc2)nc(C(=O)O)c1Cl [Compound 180] | 85 to 94 | 95 to 100 | 45 to 59 | 85 to 94 | 95 to 100 | 95 to 100 | 95 to 100 | 85 to 94 | 85 to 94 | 0 to 29 | 0 to 29 | 30 to 44 | 45 to 59 | 0 to 29 | 0 to 29 | 0 to 29 | 0 to 29 | 0 to 29 | 0 to 29 | 0 to 29 | pest or weed control at 140 g/ha [1, 4]: 75 to 84%; pest or weed control at 70 g/ha [1, 7]: 60 to 74%; pest or weed control at 140 g/ha [1, 7]: 75 to 84%; pest or weed control at 140 g/ha [2, 14]: 0 to 29%; pest or weed control at 70 g/ha [2, 15]: 0 to 29%; pest or weed control at 140 g/ha [2, 15]: 30 to 44%; pest or weed control at 70 g/ha [2, 16]: 0 to 29%; pest or weed control at 140 g/ha [2, 16]: 0 to 29%; pest or weed control at 70 g/ha [2, 17]: 0 to 29%; pest or weed control at 140 g/ha [2, 17]: 0 to 29% |
